The text below walks through data of patent US7572786B2, “Substituted 1-piperidin-3-yl-4-piperidin-4-yl-piperazine derivatives and their use as neurokinin antagonists” (Janssen Pharmaceutica, N.V., priority 2002, dated 2009).

The target of the first assay is NK1 (Homo sapiens, UniProt P25103). Put plainly: Signal transduction (ST), intracellular Ca++ (FLIPR), NK1 antagonism. Type of assay: cell-based. The conditions noted are these: read-out: pIC50 NK1 (converted). The method, then: (§1) This test evaluates in vitro functional NK1 antagonistic activity. For the measurements of intracellular Ca^++ concentrations the cells were grown on 96-well (black wall/transparent bottom) plates from Costar for 2 days until they reached confluence. The cells were loaded with 2 μM Fluo3 in DMEM containing 0.1% BSA and 2.5 mM probenecid for 1 h at 37° C. […] The cells were preincubated with a concentration range of antagonists for 20 min at RT and Ca^++-signals after addition of the agonists were measured in a Fluorescence Image Plate Reader (FLIPR from Molecular Devices, Crawley, England). The peak of the Ca^++-transient was considered as the relevant signal and the mean values of corresponding wells were analysed as described below.
NK1, sequence (P25103 whole entry): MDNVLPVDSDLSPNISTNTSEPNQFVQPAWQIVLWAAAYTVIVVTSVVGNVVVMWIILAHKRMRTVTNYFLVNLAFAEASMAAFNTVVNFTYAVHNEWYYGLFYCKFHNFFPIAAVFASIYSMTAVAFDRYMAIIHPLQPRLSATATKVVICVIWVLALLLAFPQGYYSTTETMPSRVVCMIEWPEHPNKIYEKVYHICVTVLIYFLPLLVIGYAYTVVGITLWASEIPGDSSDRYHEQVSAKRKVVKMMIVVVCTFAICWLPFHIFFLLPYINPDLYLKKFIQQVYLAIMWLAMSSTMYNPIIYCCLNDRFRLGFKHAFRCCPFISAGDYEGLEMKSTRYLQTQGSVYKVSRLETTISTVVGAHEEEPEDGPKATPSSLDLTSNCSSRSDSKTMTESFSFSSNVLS
(§2) The sigmoidal dose response curves were analysed by computerised curve-fitting, using the GraphPad Program. […] For antagonist responses the IC50-value was calculated using non-linear regression.
For `N#Cc1ccc(C(=O)N2CCCC(N3CCN([C@H]4CCN(C(=O)c5cc(C(F)(F)F)cc(C(F)(F)F)c5)[C@H](Cc5ccccc5)C4)CC3)C2)cc1` (stereo partly drawn) [Compound 62], the IC50 is 10 nM.
The same measure, in the same setting: as for `O=C(c1cc(C(F)(F)F)cc(C(F)(F)F)c1)N1CC[C@H](N2CCN(C3CCCN(S(=O)(=O)c4ccsc4)C3)CC2)C[C@H]1Cc1ccccc1` (stereo partly drawn) [Compound 29], the figure is 6.31 nM.
Take `O=C(c1ccccc1Cl)N1CCCC(N2CCN([C@H]3CCN(C(=O)c4cc(C(F)(F)F)cc(C(F)(F)F)c4)[C@H](Cc4ccccc4)C3)CC2)C1` (stereo partly drawn) [Compound 10]: the IC50 was 25.1 nM.
For `O=C(c1cc(C(F)(F)F)cc(C(F)(F)F)c1)N1CC[C@H](N2CCN(C3CCCN(c4cnccn4)C3)CC2)C[C@H]1Cc1ccccc1` (stereo partly drawn) [Compound 26], the IC50 was 7.94 nM.
On to `O=C(c1cccnc1)N1CCCC(N2CCN([C@H]3CCN(C(=O)c4cc(C(F)(F)F)cc(C(F)(F)F)c4)[C@H](Cc4ccccc4)C3)CC2)C1` (stereo partly drawn) [Compound 23], for which the IC50 is 20 nM.
For the compound `CC(C)NC(=O)N1CCCC(N2CCN(C3CCN(C(=O)c4cc(C(F)(F)F)cc(C(F)(F)F)c4)C(Cc4ccccc4)C3)CC2)C1` (stereo not drawn) [Compound 66], the IC50 is 5.01 nM.
`O=C(c1cc(C(F)(F)F)cc(C(F)(F)F)c1)N1CC[C@H](N2CCN(C3CCCN(C(CO)c4ccccc4Cl)C3)CC2)C[C@H]1Cc1ccccc1` (stereo partly drawn) [Compound 89]: the IC50 is 63.1 nM.
For `O=C(c1sccc1COCc1ccccc1)N1CCCC(N2CCN([C@H]3CCN(C(=O)c4cc(C(F)(F)F)cc(C(F)(F)F)c4)[C@H](Cc4ccccc4)C3)CC2)C1` (stereo partly drawn) [Compound 88], the IC50 is 39.8 nM.
As to `Cc1nc(S(=O)(=O)N2CCCC(N3CCN([C@H]4CCN(C(=O)c5cc(C(F)(F)F)cc(C(F)(F)F)c5)[C@H](Cc5ccccc5)C4)CC3)C2)cn1C` (stereo partly drawn) [Compound 32], the IC50 was 5.01 nM.
In the case of `O=C(c1cccc(O)c1)N1CCCC(N2CCN([C@H]3CCN(C(=O)c4cc(C(F)(F)F)cc(C(F)(F)F)c4)[C@H](Cc4ccccc4)C3)CC2)C1` (stereo partly drawn) [Compound 70], the IC50 is 7.94 nM.
In the case of `O=C(c1cccs1)N1CCCC(N2CCN([C@H]3CCN(C(=O)c4cc(C(F)(F)F)cc(C(F)(F)F)c4)[C@H](Cc4ccccc4)C3)CC2)C1` (stereo partly drawn) [Compound 20], the IC50 is 31.6 nM.
The same measure, in the same setting: as for `O=C(C(O)c1ccccc1)N1CCCC(N2CCN([C@H]3CCN(C(=O)c4cc(C(F)(F)F)cc(C(F)(F)F)c4)[C@H](Cc4ccccc4)C3)CC2)C1` (stereo partly drawn) [Compound 56], the figure is 7.94 nM; as for `CC(C)N/C(=N\C#N)N1CCCC(N2CCN(C3CCN(C(=O)c4cc(C(F)(F)F)cc(C(F)(F)F)c4)C(Cc4ccccc4)C3)CC2)C1` (stereo not drawn) [Compound 91], 10 nM.

In the next assay the target is T1, NK3 (Homo sapiens, UniProt P29371).
T1 sequence (P29371 1-465): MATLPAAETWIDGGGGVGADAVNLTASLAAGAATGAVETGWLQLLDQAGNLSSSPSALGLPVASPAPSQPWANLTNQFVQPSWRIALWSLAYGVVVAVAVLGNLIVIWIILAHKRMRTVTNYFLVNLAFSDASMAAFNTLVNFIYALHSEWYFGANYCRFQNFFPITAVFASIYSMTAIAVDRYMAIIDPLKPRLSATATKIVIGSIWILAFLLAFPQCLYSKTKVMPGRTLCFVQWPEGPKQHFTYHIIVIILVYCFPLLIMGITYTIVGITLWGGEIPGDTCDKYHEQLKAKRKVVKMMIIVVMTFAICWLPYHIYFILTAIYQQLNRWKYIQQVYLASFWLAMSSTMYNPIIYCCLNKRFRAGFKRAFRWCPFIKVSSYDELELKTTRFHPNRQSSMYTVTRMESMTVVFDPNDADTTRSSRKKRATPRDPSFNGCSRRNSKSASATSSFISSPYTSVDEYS
Put plainly: Signal transduction (ST), intracellular Ca++ (FLIPR), NK3. The settings on record: read-out: pIC50 NK3 (converted). The class given is cell-based. The procedure: [The source words this procedure for another target and reports this target under the same test.] as §1, §2
For `N#Cc1ccc(C(=O)N2CCCC(N3CCN([C@H]4CCN(C(=O)c5cc(C(F)(F)F)cc(C(F)(F)F)c5)[C@H](Cc5ccccc5)C4)CC3)C2)cc1` (stereo partly drawn) [Compound 62], the IC50 was 3160 nM.
Consider `O=C(c1cc(C(F)(F)F)cc(C(F)(F)F)c1)N1CC[C@H](N2CCN(C3CCCN(S(=O)(=O)c4ccsc4)C3)CC2)C[C@H]1Cc1ccccc1` (stereo partly drawn) [Compound 29], for which the IC50 was 316 nM.
`O=C(c1ccccc1Cl)N1CCCC(N2CCN([C@H]3CCN(C(=O)c4cc(C(F)(F)F)cc(C(F)(F)F)c4)[C@H](Cc4ccccc4)C3)CC2)C1` (stereo partly drawn) [Compound 10]: the IC50 was 501 nM.
The same measure, in the same setting: as for `O=C(c1cc(C(F)(F)F)cc(C(F)(F)F)c1)N1CC[C@H](N2CCN(C3CCCN(c4cnccn4)C3)CC2)C[C@H]1Cc1ccccc1` (stereo partly drawn) [Compound 26], the figure is 794 nM; as for `O=C(c1cccnc1)N1CCCC(N2CCN([C@H]3CCN(C(=O)c4cc(C(F)(F)F)cc(C(F)(F)F)c4)[C@H](Cc4ccccc4)C3)CC2)C1` (stereo partly drawn) [Compound 23], 2000 nM.
On to `CC(C)NC(=O)N1CCCC(N2CCN(C3CCN(C(=O)c4cc(C(F)(F)F)cc(C(F)(F)F)c4)C(Cc4ccccc4)C3)CC2)C1` (stereo not drawn) [Compound 66], for which the IC50 was 3160 nM.
Still for that read-out and setting: in the case of `O=C(c1cc(C(F)(F)F)cc(C(F)(F)F)c1)N1CC[C@H](N2CCN(C3CCCN(C(CO)c4ccccc4Cl)C3)CC2)C[C@H]1Cc1ccccc1` (stereo partly drawn) [Compound 89] it was 7940 nM.
For `O=C(c1sccc1COCc1ccccc1)N1CCCC(N2CCN([C@H]3CCN(C(=O)c4cc(C(F)(F)F)cc(C(F)(F)F)c4)[C@H](Cc4ccccc4)C3)CC2)C1` (stereo partly drawn) [Compound 88], the IC50 was 631 nM.
Take `Cc1nc(S(=O)(=O)N2CCCC(N3CCN([C@H]4CCN(C(=O)c5cc(C(F)(F)F)cc(C(F)(F)F)c5)[C@H](Cc5ccccc5)C4)CC3)C2)cn1C` (stereo partly drawn) [Compound 32]: the IC50 is 100 nM.
Same read-out and setting: in the case of `O=C(c1cccc(O)c1)N1CCCC(N2CCN([C@H]3CCN(C(=O)c4cc(C(F)(F)F)cc(C(F)(F)F)c4)[C@H](Cc4ccccc4)C3)CC2)C1` (stereo partly drawn) [Compound 70] it was 1260 nM; in that of `O=C(c1cccs1)N1CCCC(N2CCN([C@H]3CCN(C(=O)c4cc(C(F)(F)F)cc(C(F)(F)F)c4)[C@H](Cc4ccccc4)C3)CC2)C1` (stereo partly drawn) [Compound 20], 251 nM; in that of `O=C(C(O)c1ccccc1)N1CCCC(N2CCN([C@H]3CCN(C(=O)c4cc(C(F)(F)F)cc(C(F)(F)F)c4)[C@H](Cc4ccccc4)C3)CC2)C1` (stereo partly drawn) [Compound 56], 2000 nM.
On the same count and under the same terms, as for `CC(C)N/C(=N\C#N)N1CCCC(N2CCN(C3CCN(C(=O)c4cc(C(F)(F)F)cc(C(F)(F)F)c4)C(Cc4ccccc4)C3)CC2)C1` (stereo not drawn) [Compound 91], the figure is 3980 nM.

The next assay has as its target T2, NK2 (Homo sapiens, UniProt P21452).
T2 sequence (P21452 1-398): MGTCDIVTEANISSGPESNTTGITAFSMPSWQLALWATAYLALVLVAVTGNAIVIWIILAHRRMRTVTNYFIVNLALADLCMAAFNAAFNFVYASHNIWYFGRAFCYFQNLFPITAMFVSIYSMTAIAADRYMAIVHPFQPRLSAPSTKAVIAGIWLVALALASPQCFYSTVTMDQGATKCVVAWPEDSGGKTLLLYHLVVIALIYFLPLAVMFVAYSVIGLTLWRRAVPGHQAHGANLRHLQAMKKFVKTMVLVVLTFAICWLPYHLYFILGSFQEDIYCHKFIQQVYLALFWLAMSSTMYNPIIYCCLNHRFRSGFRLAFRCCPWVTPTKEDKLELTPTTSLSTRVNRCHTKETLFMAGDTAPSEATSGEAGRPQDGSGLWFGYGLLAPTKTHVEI
Put plainly: Signal transduction (ST), intracellular Ca++ (FLIPR), NK2. The class given is cell-based. The conditions noted are these: read-out: pIC50 NK2 (converted). The procedure:
[The source words this procedure for another target and reports this target under the same test.] as §1, §2
In the case of `N#Cc1ccc(C(=O)N2CCCC(N3CCN([C@H]4CCN(C(=O)c5cc(C(F)(F)F)cc(C(F)(F)F)c5)[C@H](Cc5ccccc5)C4)CC3)C2)cc1` (stereo partly drawn) [Compound 62], the IC50 is 3980 nM.
`O=C(c1cc(C(F)(F)F)cc(C(F)(F)F)c1)N1CC[C@H](N2CCN(C3CCCN(S(=O)(=O)c4ccsc4)C3)CC2)C[C@H]1Cc1ccccc1` (stereo partly drawn) [Compound 29]: the IC50 was 1260 nM.
Take `O=C(c1ccccc1Cl)N1CCCC(N2CCN([C@H]3CCN(C(=O)c4cc(C(F)(F)F)cc(C(F)(F)F)c4)[C@H](Cc4ccccc4)C3)CC2)C1` (stereo partly drawn) [Compound 10]: the IC50 is 3980 nM.
Take `O=C(c1cc(C(F)(F)F)cc(C(F)(F)F)c1)N1CC[C@H](N2CCN(C3CCCN(c4cnccn4)C3)CC2)C[C@H]1Cc1ccccc1` (stereo partly drawn) [Compound 26]: the IC50 was 7940 nM.
Turning to `O=C(c1cccnc1)N1CCCC(N2CCN([C@H]3CCN(C(=O)c4cc(C(F)(F)F)cc(C(F)(F)F)c4)[C@H](Cc4ccccc4)C3)CC2)C1` (stereo partly drawn) [Compound 23], the IC50 was 3980 nM.
As for `CC(C)NC(=O)N1CCCC(N2CCN(C3CCN(C(=O)c4cc(C(F)(F)F)cc(C(F)(F)F)c4)C(Cc4ccccc4)C3)CC2)C1` (stereo not drawn) [Compound 66], the IC50 was 3160 nM.
Same read-out and setting: in the case of `O=C(c1cc(C(F)(F)F)cc(C(F)(F)F)c1)N1CC[C@H](N2CCN(C3CCCN(C(CO)c4ccccc4Cl)C3)CC2)C[C@H]1Cc1ccccc1` (stereo partly drawn) [Compound 89] it was 5010 nM; in that of `O=C(c1sccc1COCc1ccccc1)N1CCCC(N2CCN([C@H]3CCN(C(=O)c4cc(C(F)(F)F)cc(C(F)(F)F)c4)[C@H](Cc4ccccc4)C3)CC2)C1` (stereo partly drawn) [Compound 88], 2510 nM.
`Cc1nc(S(=O)(=O)N2CCCC(N3CCN([C@H]4CCN(C(=O)c5cc(C(F)(F)F)cc(C(F)(F)F)c5)[C@H](Cc5ccccc5)C4)CC3)C2)cn1C` (stereo partly drawn) [Compound 32]: the IC50 was 631 nM.
With `O=C(c1cccc(O)c1)N1CCCC(N2CCN([C@H]3CCN(C(=O)c4cc(C(F)(F)F)cc(C(F)(F)F)c4)[C@H](Cc4ccccc4)C3)CC2)C1` (stereo partly drawn) [Compound 70], the IC50 was 3980 nM.
Turning to `O=C(c1cccs1)N1CCCC(N2CCN([C@H]3CCN(C(=O)c4cc(C(F)(F)F)cc(C(F)(F)F)c4)[C@H](Cc4ccccc4)C3)CC2)C1` (stereo partly drawn) [Compound 20], the IC50 was 2000 nM.
`O=C(C(O)c1ccccc1)N1CCCC(N2CCN([C@H]3CCN(C(=O)c4cc(C(F)(F)F)cc(C(F)(F)F)c4)[C@H](Cc4ccccc4)C3)CC2)C1` (stereo partly drawn) [Compound 56]: the IC50 was 1000 nM.
On to `CC(C)N/C(=N\C#N)N1CCCC(N2CCN(C3CCN(C(=O)c4cc(C(F)(F)F)cc(C(F)(F)F)c4)C(Cc4ccccc4)C3)CC2)C1` (stereo not drawn) [Compound 91], for which the IC50 was 1000 nM.
